The values that follow come from patent US10093630B2, “Pyrazole compounds and methods of making and using same” (ABIDE THERAPEUTICS, INC., priority 2014, dated 2018).

Holding throughout (assay): In vitro competitive activity-based protein profiling (gel-based, FP-Rh or HT-01 probe)
What all share (type): biochemical

Test [1] has as its target T1, ABHD6 (Mus musculus, UniProt Q8R2Y0).
T1 construct: Proteomes (mouse brain membrane fraction or cell lysates); from tissue; host or cells: mouse brain membrane fraction (or cell lysates, not specified)
T1 sequence (Q8R2Y0 1-336): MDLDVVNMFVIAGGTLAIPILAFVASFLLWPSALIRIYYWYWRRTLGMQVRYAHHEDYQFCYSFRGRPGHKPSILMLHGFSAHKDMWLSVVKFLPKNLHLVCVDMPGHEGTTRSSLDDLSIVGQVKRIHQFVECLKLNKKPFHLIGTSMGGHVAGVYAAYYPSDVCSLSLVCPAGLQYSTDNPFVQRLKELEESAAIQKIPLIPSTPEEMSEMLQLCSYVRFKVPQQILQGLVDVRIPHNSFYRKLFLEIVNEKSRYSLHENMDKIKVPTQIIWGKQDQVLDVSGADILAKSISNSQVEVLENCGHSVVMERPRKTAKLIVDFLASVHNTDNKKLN
To be noted: for inhibition at 1 µM: 1 μM inhibitor, read-out: % Inhibition at 1 μM, C = ABHD6; for inhibition at 10 µM: 10 μM inhibitor, read-out: % Inhibition at 10 μM, C = ABHD6. The method, boiled down: (§1)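 Mouse brain membrane proteome or cell lysate (1.0 mg/mL protein) was preincubated with inhibitor at varying concentrations for 30 min at 37° C, then labelled with FP-Rh or HT-01 for 30 min at 37° C. After SDS-PAGE, residual hydrolase activity was quantified as in-gel fluorescence of each band.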

Test [2] addresses T2, FAAH (Mus musculus, UniProt O08914).
T2 construct: Proteomes (mouse brain membrane fraction or cell lysates); from tissue; host or cells: mouse brain membrane fraction (or cell lysates, not specified)
T2 sequence (O08914 1-579): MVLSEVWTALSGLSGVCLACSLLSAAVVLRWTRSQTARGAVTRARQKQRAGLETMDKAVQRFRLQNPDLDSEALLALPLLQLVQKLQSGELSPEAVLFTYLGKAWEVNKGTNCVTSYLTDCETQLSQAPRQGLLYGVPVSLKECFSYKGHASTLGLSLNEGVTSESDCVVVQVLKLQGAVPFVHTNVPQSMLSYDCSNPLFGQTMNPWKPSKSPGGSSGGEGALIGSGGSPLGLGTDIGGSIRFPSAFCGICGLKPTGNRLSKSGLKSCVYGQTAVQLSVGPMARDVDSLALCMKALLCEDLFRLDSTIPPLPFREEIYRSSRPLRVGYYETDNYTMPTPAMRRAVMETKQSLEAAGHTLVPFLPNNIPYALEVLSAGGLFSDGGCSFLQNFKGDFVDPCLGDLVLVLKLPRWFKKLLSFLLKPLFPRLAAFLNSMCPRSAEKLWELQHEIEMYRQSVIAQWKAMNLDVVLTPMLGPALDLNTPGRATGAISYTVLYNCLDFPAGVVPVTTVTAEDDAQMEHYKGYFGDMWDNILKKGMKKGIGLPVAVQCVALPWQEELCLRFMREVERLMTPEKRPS
To be noted: for inhibition at 1 µM: 1 μM inhibitor, read-out: % Inhibition at 1 μM, B = FAAH; for inhibition at 10 µM: 10 μM inhibitor, read-out: % Inhibition at 10 μM, B = FAAH. The method, boiled down:
as §1

The target in test [3] is T3, MAGL (Mus musculus, UniProt O35678).
T3 construct: Proteomes (mouse brain membrane fraction or cell lysates); from tissue; host or cells: mouse brain membrane fraction (or cell lysates, not specified)
T3 sequence (O35678 1-303): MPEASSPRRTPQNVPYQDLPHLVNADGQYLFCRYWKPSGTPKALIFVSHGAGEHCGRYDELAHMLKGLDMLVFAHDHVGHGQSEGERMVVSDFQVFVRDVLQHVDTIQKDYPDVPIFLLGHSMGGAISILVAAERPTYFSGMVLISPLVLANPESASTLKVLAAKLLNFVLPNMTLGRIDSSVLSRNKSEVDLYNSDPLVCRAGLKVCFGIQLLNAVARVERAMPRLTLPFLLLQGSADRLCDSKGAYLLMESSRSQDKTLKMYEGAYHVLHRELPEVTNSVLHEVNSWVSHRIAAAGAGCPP
To be noted: for inhibition at 1 µM: 1 μM inhibitor; for inhibition at 10 µM: 10 μM inhibitor. The essentials: as §1

Test [4] addresses T4, PLA2G7 (Mus musculus, UniProt Q60963).
T4 construct: Proteomes (mouse brain membrane fraction or cell lysates); from tissue; host or cells: mouse brain membrane fraction (or cell lysates, not specified)
T4 sequence (Q60963 22-440): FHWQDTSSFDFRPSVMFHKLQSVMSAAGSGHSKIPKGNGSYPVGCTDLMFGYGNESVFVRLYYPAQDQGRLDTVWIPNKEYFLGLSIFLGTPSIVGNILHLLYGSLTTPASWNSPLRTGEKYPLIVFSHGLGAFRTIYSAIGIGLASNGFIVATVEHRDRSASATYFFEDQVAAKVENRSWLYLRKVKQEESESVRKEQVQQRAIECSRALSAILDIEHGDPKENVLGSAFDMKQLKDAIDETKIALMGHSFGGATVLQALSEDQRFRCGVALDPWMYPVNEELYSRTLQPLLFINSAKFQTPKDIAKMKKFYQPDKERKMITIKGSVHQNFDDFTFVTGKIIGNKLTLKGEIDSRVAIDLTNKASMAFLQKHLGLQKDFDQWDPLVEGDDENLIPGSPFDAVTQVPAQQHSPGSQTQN
The conditions noted are these: for inhibition at 1 µM: 1 μM inhibitor, read-out: % Inhibition at 1 μM, D = PLA2G7; for inhibition at 10 µM: 10 μM inhibitor, read-out: % Inhibition at 10 μM, D = PLA2G7. The method, boiled down: as §1

For orientation: inhibition means the drop in the measured response relative to a control, in per cent. As usually defined, the IC50 is the concentration needed to halve the response being measured. Low values mean inhibition by little substance, high ones a need for much substance.

Turning to `CS(=O)(=O)N1CCN(C(=O)n2cc(Cl)cn2)CC1` [Example 184, (4-Chloro-1H-pyrazol-1-yl)(4-(methylsulfonyl)piperazin-1-yl)methanone], the inhibition at 1 µM was greater than 75% in test [1], less than 25% in test [2], less than 25% in test [3] and greater than 75% in test [4]. The inhibition at 10 µM was greater than 75% in test [1], 25 to 75% in test [2], less than 25% in test [3] and greater than 75% in test [4].

On to `CN1CCN(C(=O)n2cc(Cl)cn2)CC1` [Example 185, (4-Chloro-1H-pyrazol-1-yl)(4-methylpiperazin-1-yl)methanone], for which the inhibition at 1 µM in test [1] is greater than 75%; in test [2], less than 25%; in test [3] it was less than 25%; in test [4] it was less than 25%. The inhibition at 10 µM in test [1] was greater than 75%; in test [2] it was greater than 75%; in test [3], 25 to 75%; in test [4], greater than 75%.

Regarding `O=C(N1CCN(Cc2ccccc2)CC1)n1cc(Cl)cn1` [Example 186, (4-Benzylpiperazin-1-yl)(4-chloro-1H-pyrazol-1-yl)methanone], the IC50 in test [1] is less than 100 nM; in test [2], 100 to 1000 nM; in test [3] it was less than 100 nM; in test [4] (mouse brain membrane fraction or cell lysates, 30 min preincubation at 37° C.), greater than 1000 nM. Besides, the inhibition at 1 µM is greater than 75% in test [1], greater than 75% in test [2], greater than 75% in test [3] and less than 25% in test [4]. The inhibition at 10 µM in test [1], in test [2], in test [3] and in test [4] was greater than 75% in each case.

As to `O=C(c1ccccc1)N1CCN(C(=O)n2cc(Cl)cn2)CC1` [Example 187, (4-Benzoylpiperazin-1-yl)(4-chloro-1H-pyrazol-1-yl)methanone], the inhibition at 1 µM in test [1] is less than 25%; in test [2] it was less than 25%; in test [3], 25 to 75%; in test [4], greater than 75%. Besides, the inhibition at 10 µM in test [1] was 25 to 75%; in test [2] it was greater than 75%; in test [3], greater than 75%; in test [4], greater than 75%.

In the case of `CS(=O)(=O)N1CCCN(C(=O)n2cc(Cl)cn2)CC1` [Example 189, (4-Chloro-1H-pyrazol-1-yl)(4-(methylsulfonyl)-1,4-diazepan-1-yl)methanone], the inhibition at 1 µM was greater than 75% in test [1], greater than 75% in test [2], less than 25% in test [3] and less than 25% in test [4]. Also, the inhibition at 10 µM is greater than 75% in test [1], greater than 75% in test [2], 25 to 75% in test [3] and less than 25% in test [4].

As to `O=C(N1CCCN(Cc2ccccc2)CC1)n1cc(Cl)cn1` [Example 191, (4-Benzyl-1,4-diazepan-1-yl)(4-chloro-1H-pyrazol-1-yl)methanone], the inhibition at 1 µM is 25 to 75% in test [1], greater than 75% in test [2], less than 25% in test [3] and less than 25% in test [4]. Further, the inhibition at 10 µM in test [1] was greater than 75%; in test [2], greater than 75%; in test [3] it was greater than 75%; in test [4], less than 25%.

In the case of `O=C(c1ccccc1)N1CCCN(C(=O)n2cc(Cl)cn2)CC1` [Example 192, (4-Benzoyl-1,4-diazepan-1-yl)(4-chloro-1H-pyrazol-1-yl)methanone], the inhibition at 1 µM was 25 to 75% in test [1], less than 25% in test [2], 25 to 75% in test [3] and less than 25% in test [4]. Moreover, the inhibition at 10 µM in test [1], in test [2], in test [3] and in test [4] was greater than 75% each time.

Regarding `CC(=O)N(C)CCN(C)C(=O)n1cc(Cl)cn1` [Example 193, 4-Chloro-N-methyl-N-(2-(N-methylacetamido)ethyl)-1H-pyrazole-1-carboxamide], the inhibition at 10 µM in test [1], in test [2], in test [3] and in test [4] was less than 25% in each case.

On to `CN(CCN(C)C(=O)n1cc(Cl)cn1)C(=O)c1ccccc1` [Example 194, 4-Chloro-N-methyl-N-(2-(N-methylbenzamido)ethyl)-1H-pyrazole-1-carboxamide], for which the inhibition at 1 µM in test [1] is less than 25%; in test [2], 25 to 75%; in test [3], less than 25%; in test [4] it was less than 25%. The inhibition at 10 µM in test [1] was less than 25%; in test [2], greater than 75%; in test [3], 25 to 75%; in test [4], less than 25%.

Take `CN(CCN(C)S(C)(=O)=O)C(=O)n1cc(C(F)(F)F)cn1` [Example 195, N-Methyl-N-(2-(N-methylmethylsulfonamido)ethyl)-4-(trifluoromethyl)-1H-pyrazole-1-carboxamide]: the inhibition at 1 µM in test [1], in test [2], in test [3] and in test [4] was less than 25% each time. The inhibition at 10 µM is greater than 75% in test [1], greater than 75% in test [2], less than 25% in test [3] and 25 to 75% in test [4].

In the case of `CN(CCN(C)S(C)(=O)=O)C(=O)n1cc(C#N)cn1` [Example 197, 4-Cyano-N-methyl-N-(2-(N-methylmethylsulfonamido)ethyl)-1H-pyrazole-1-carboxamide], the inhibition at 1 µM is less than 25% in test [1], 25 to 75% in test [2], less than 25% in test [3] and less than 25% in test [4]. Moreover, the inhibition at 10 µM was 25 to 75% in test [1], greater than 75% in test [2] and less than 25% in test [3].

On to `CN(CCN(C)S(C)(=O)=O)C(=O)n1cc(Cl)cn1` [Example 198, 4-Chloro-N-methyl-N-(2-(N-methylmethylsulfonamido)ethyl)-1H-pyrazole-1-carboxamide], for which the inhibition at 10 µM in test [1], in test [2], in test [3] and in test [4] was less than 25% in each case.

For the compound `O=C(N1CCCC1)n1cc(C(F)(F)F)cn1` [Example 199, Pyrrolidin-1-yl(4-(trifluoromethyl)-1H-pyrazol-1-yl)methanone], the inhibition at 1 µM in test [1] is 25 to 75%; in test [2] it was greater than 75%; in test [3], less than 25%; in test [4], 25 to 75%. In addition, the inhibition at 10 µM in test [1], in test [2], in test [3] and in test [4] was greater than 75% each time.
